# Data reported in patent publication US20210254272A1, “TEXTILES HAVING ANTIMICROBIAL PROPERTIES” (Livinguard AG, priority 2015, published 2021).
# Assay: Leaching: 10 grams fabric in 100 milliliters distilled water, 7 days, GC-MS
# Format: physicochemical
# Description: To test for a potential leaching of the antimicrobial agents fixed to the textile material, the following test was performed. A test fabric of polyester 65%/cotton 35% with 210 g/m2 was treated with polyhexamethylenebiguanide (PHMB) 0.5%, silver chloride 0.075%, octadecylaminomethyl trihydroxysilylpropyl ammonium chloride (organosilane) 0.4%, and propiconazole 0.5%
# The treated textile material was put into distilled water at a ratio of 1:10. Specifically, a fabric of 10 grams was soaked in 100 milliliters of distilled water. The fabric was incubated in the water for 7 days at room temperature, i.e. between 21 and 25° C.
# Following said incubation time, the fabric was removed from the water and the exposed water was tested for the presence of the above five active ingredients using gas chromatography-mass spectrometry (GC-MS).
smiles,measurement,value
[Cl][Ag] [Silver chloride],"Extracted water Conc, ppm",BDL (BDL-below detection limit Detection limit: 1 parts per million (ppm))
